Counter-ions that a name gives are not always drawn.
What was measured:
mice [1] = assay: Acute toxicity study in mice after intravenous (tail vein) injection of MPPs or MPP-conjugates; format: in vivo, mice (Kunming species)
Description: A total of 390 mice (Kunming species, 22 ± 2 g, sex matched), were provided by the Experimental animal center of Academy of military medical sciences, China. The health condition of the mice was examined to confirm their suitability for use in the study. The animal rooms were monitored and maintained under a 12 h light‐dark cycle with temperature ranging from 20 to 25°C and a relative humidity of 40–60%. All the mice were allowed to acclimate to the laboratory environment for 2 days, housed by sex in groups of five per cage, provided with standard commercial diet and drinking water ad libitum. All the animal procedures performed in this study were reviewed and approved by the Animal Experimental Welfare and Ethical Inspection Committee of the Chinese Center for Disease Control and Prevention (Approval number IACUC#15‐026).
Firstly, a preliminary sequential toxicity testing was carried to find out the scope of the dosage. Then four dosages within this range were properly selected to carry on the LD50 estimation. The LD50 was calculated avoid the all or none survival groups of mice.
Five males and five females per group were stratified by weight and assigned randomly. The control mice and those in groups 1, 2, 3, 4 were intravenously injected with different doses of MPPs or MPP‐conjugates. The general behavior and signs of toxicity were monitored for 3 h after administration, and carried on once a day up to 14 days. The surviving mice were euthanized while those died from the poisoning were necropsied.
All the data are expressed as the means ± standard deviation (SD), and comparisons among the different groups were performed using an analysis of variance (ANOVA). The IBM statistical package for the social science (SPSS) statistics 20 software was used for all the analysis. The significance level was set at 5 and 1% (P < 0.05 and P < 0.01). The LD50 value was determined according to the Bliss method (Badisa et al. 2008).

mice [2] = details: converted from rat value; ref Saka et al. 2004; cited from earlier work
Excerpt: (§1) The mechanism of the poisonous effects caused by TAT and CTP is not yet well understood. However, it is known that L‐arginine stimulates the release of insulin and causes necrotic pancreatitis with specific elevation of amylase in serum and urine. […] Thus, the higher mass ratio of arginine residues in the conjugate (Table 4) might be the best explanation of the toxicity.

rats = details: ref Saka et al. 2004; cited from earlier work
Excerpt: as §1

[3] = iv, Bliss method, five males and five females per group, observed up to 14 days, Table 2

In the case of `O=C(O)C(F)(F)F` [TFA, Trifluoroacetic acid], the “Toxicity in words (TFA control group)” value (mice [1]; 0.1% TFA solution) was “did not manifest any toxicity”, the “Toxicity in words (TFA control group)” value (mice [1]; 0.5% TFA solution) was “did not manifest any toxicity” and the “Toxicity in words (TFA control group)” value (mice [1]; 1% TFA solution) was “did not manifest any toxicity”. The “Toxicity in words (TFA control group)” value (mice [1]; 2% TFA solution) was “death appeared in a part of the mice”.

For `N=C(N)NCCC[C@H](N)C(=O)O` [arginine], the “LD50 of arginine, corresponding value in mice” value (mice [2]) is listed as 542 mg/kg and the “LD50 of arginine in rats” value (rats) is listed as 3793 mg/kg.

In the case of “YGRKKRRQRRR [TAT, arginine-rich membrane-permeable undecapeptide …]”, the LD50 (mice [1]; iv (tail vein), values in text) was 27.244 mg/kg, the “Survival rate (%)” value (mice [1]; iv, 27 mg kg^−1) was 50% and the LD50 (mice [1]; [3]) was 27.244 mg/kg. For the same molecule, the “Mortality (%)” value (mice [1]; iv, group 1, 25 mg kg^−1) was 22.2%, the Mortality (mice [1]; iv, group 1, 25 mg kg^−1, dead/total) was 2/9 and the “Mortality (%)” value (mice [1]; iv, group 2, 27 mg kg^−1) was 44.4%. The Mortality (mice [1]; iv, group 2, 27 mg kg^−1, dead/total) was 4/9, the “Mortality (%)” value (mice [1]; iv, group 3, 28 mg kg^−1) was 55.6% and the Mortality (mice [1]; iv, group 3, 28 mg kg^−1, dead/total) was 5/9. The “Mortality (%)” value (mice [1]; iv, group 4, 30 mg kg^−1) was 87.5%, the Mortality (mice [1]; iv, group 4, 30 mg kg^−1, dead/total) was 7/8 and the LD50 (mice [1]; iv, rounded values of Table 4) was 27 mg/kg.

With ACSSSPSKHCG [TD] the “Survival rate (%)” value (mice [1]; iv, 140 mg kg^−1) was 100%, the LD50 (mice [1]; [3]) was greater than 140 mg/kg and the “Mortality (%)” value (mice [1]; iv, group 1, 80 mg kg^−1) was 0%. For the same molecule, the Mortality (mice [1]; iv, group 1, 80 mg kg^−1, dead/total) was 0/2, the “Mortality (%)” value (mice [1]; iv, group 2, 100 mg kg^−1) was 0% and the Mortality (mice [1]; iv, group 2, 100 mg kg^−1, dead/total) was 0/8. The “Mortality (%)” value (mice [1]; iv, group 3, 140 mg kg^−1) was 0%, the Mortality (mice [1]; iv, group 3, 140 mg kg^−1, dead/total) was 0/8 and the LD50 (mice [1]; iv, rounded values of Table 4) was greater than 140 mg/kg. The “Survival and side effects in words” value (mice [1]; tail vein, 140 mg kg^−1) was “all the mice well survived even without any side effect appeared”.

For “RRRRRRRRRRR [R11, undecapeptide composed purely of arginine residues, …]”, the LD50 (mice [1]; iv (tail vein), values in text) was 16.5 mg/kg, the “Survival rate (%)” value (mice [1]; iv, 16.5 mg kg^−1) was 50% and the LD50 (mice [1]; [3]) was 16.508 mg/kg. The “Mortality (%)” value (mice [1]; iv, group 1, 15.5 mg kg^−1) was 10%, the Mortality (mice [1]; iv, group 1, 15.5 mg kg^−1, dead/total) was 1/10 and the “Mortality (%)” value (mice [1]; iv, group 2, 16 mg kg^−1) was 30%. The Mortality (mice [1]; iv, group 2, 16 mg kg^−1, dead/total) was 3/10, the “Mortality (%)” value (mice [1]; iv, group 3, 16.5 mg kg^−1) was 50% and the Mortality (mice [1]; iv, group 3, 16.5 mg kg^−1, dead/total) was 5/10. For the same molecule, the “Mortality (%)” value (mice [1]; iv, group 4, 17 mg kg^−1) was 70%, the Mortality (mice [1]; iv, group 4, 17 mg kg^−1, dead/total) was 7/10 and the LD50 (mice [1]; iv, rounded values of Table 4) was 16.5 mg/kg.

With “YGRRARRRRRR [CTP, arginine-rich membrane-permeable undecapeptide […]]” the LD50 (mice [1]; iv (tail vein), values in text) was 21.345 mg/kg, the “Survival rate (%)” value (mice [1]; iv, 21 mg kg^−1) was 50% and the LD50 (mice [1]; [3]) was 21.345 mg/kg. For the same molecule, the “Mortality (%)” value (mice [1]; iv, group 1, 19.5 mg kg^−1) was 20%, the Mortality (mice [1]; iv, group 1, 19.5 mg kg^−1, dead/total) was 2/10 and the “Mortality (%)” value (mice [1]; iv, group 2, 20 mg kg^−1) was 30%. For the same molecule, the Mortality (mice [1]; iv, group 2, 20 mg kg^−1, dead/total) was 3/10, the “Mortality (%)” value (mice [1]; iv, group 3, 20.5 mg kg^−1) was 36.4% and the “Mortality (%)” value (mice [1]; iv, group 4, 22 mg kg^−1) was 60%. For the same molecule, the Mortality (mice [1]; iv, group 4, 22 mg kg^−1, dead/total) was 6/10 and the LD50 (mice [1]; iv, rounded values of Table 4) was 21 mg/kg.

With `NCCCC(=O)O` [GABA, γ‐aminobutyric acid] the Toxicity in words (mice [1]; dose as high as 8000 mg kg^−1) was “not toxic at all” and the “Survival rate (%)” value (mice [1]; iv, 8000 mg kg^−1) was 100%.

From publication PMC5625148, “Arginine‐rich membrane‐permeable peptides are seriously toxic” (Pharmacology Research & Perspectives, 2017)
